What was measured:
[1] = molecular target: Serine/threonine-protein kinase mTOR (Homo sapiens) (UniProt P42345); assay: Inhibition of recombinant human GST-tagged mTOR (1360 to 2549 residues) expressed in Escherichia coli expression system using Ser/Thr 11 as substrate at 0.1 uM incubated for 60 mins by Z'-Lyte assay relative to control
[2] = molecular target: T1, Tyrosine-protein kinase JAK3 (Homo sapiens) (UniProt P52333); assay: Inhibition of recombinant human GST-tagged JAK3 (781 to 1124 residues) expressed in baculovirus expression system using Tyr 06 as substrate at 0.1 uM incubated for 60 mins by Z'-lyte assay relative to control
T1 sequence (whole entry): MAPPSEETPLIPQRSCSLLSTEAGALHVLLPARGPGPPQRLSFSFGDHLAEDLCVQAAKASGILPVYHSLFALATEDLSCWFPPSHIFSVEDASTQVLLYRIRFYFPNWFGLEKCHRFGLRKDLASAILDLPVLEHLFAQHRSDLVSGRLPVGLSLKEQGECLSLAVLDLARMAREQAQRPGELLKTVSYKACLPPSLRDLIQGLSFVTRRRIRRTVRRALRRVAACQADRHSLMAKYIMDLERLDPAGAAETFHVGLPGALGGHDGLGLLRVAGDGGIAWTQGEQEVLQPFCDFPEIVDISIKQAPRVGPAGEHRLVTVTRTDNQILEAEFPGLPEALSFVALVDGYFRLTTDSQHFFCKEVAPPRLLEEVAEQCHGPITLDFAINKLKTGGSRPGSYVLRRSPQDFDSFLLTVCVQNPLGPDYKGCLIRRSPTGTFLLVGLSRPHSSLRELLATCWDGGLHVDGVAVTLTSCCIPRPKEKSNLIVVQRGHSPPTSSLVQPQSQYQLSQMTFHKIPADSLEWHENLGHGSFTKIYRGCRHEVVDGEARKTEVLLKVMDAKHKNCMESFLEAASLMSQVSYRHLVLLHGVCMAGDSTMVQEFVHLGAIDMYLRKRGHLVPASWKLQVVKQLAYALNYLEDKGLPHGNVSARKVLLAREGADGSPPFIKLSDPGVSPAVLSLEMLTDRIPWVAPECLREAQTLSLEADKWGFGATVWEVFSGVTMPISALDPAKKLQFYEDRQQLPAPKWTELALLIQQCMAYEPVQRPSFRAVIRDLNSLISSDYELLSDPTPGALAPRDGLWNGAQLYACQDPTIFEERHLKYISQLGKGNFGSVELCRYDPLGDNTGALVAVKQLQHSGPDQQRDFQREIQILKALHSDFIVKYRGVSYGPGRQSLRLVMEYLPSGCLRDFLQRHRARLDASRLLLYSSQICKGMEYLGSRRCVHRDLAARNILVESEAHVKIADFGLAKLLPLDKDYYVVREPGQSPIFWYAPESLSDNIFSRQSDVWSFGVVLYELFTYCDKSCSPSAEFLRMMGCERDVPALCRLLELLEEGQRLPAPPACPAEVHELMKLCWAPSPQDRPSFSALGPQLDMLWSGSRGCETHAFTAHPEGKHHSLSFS

[3] = molecular target: T2, Dual specificity protein kinase TTK (Homo sapiens) (UniProt P33981); assay: Inhibition of tracer 236 binding to recombinant human GST-tagged full length TTK expressed in baculovirus expression system at 0.1 uM incubated for 60 mins by Lanthascreen assay relative to control
T2 sequence (whole entry): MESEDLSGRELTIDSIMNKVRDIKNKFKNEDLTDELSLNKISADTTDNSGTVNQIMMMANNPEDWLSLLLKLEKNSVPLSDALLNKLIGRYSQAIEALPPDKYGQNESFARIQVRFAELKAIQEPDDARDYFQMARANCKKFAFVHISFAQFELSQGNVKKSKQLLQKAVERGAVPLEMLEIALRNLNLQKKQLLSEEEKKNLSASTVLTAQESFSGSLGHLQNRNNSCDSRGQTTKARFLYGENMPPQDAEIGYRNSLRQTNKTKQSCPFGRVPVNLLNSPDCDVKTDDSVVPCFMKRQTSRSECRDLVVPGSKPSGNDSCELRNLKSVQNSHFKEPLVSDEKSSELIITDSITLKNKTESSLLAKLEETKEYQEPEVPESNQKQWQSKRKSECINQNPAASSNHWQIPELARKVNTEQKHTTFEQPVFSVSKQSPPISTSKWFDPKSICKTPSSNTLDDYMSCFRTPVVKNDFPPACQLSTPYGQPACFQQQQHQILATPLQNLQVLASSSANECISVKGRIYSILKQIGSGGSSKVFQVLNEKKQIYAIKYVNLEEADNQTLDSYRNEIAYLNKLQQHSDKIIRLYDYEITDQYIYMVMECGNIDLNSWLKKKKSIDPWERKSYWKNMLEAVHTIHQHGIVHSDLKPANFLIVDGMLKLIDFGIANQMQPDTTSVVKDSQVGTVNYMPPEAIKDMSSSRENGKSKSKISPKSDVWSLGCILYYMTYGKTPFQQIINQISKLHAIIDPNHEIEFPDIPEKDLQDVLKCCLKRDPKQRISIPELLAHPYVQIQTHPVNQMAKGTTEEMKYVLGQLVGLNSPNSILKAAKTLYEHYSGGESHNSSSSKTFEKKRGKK

In the case of `Cn1cc(NC(=O)c2cnn3cccnc23)c(-c2cc(Cl)ccc2OC(F)F)n1`, the inhibition [1] is reported as -3%, the inhibition [2] is reported as 98% and the inhibition [3] is reported as 5%.
For `O=C(Nc1c[nH]nc1-c1cc2ccccc2cc1OC(F)F)c1cnn2cccnc12`, the inhibition [1] was 5%, the inhibition [2] was 94% and the inhibition [3] was -3%.
With `O=C(Nc1c[nH]nc1-c1cc(Cl)ccc1OC(F)F)c1cnn2cccnc12` the inhibition [1] was 1%, the inhibition [2] was 95% and the inhibition [3] was 4%.
